# Experimental data reported in patent publication US12061202B2, “Compositions and methods for bioluminescent detection using multifunctional probes” (Promega Corporation, priority 2019, dated 2024).
# What was measured:
# Raji target cells = test: Bispecific T-cell engager (BiTE) target cell lysis, labeled Raji target cells with TALL-104 effector cells; type: cell-based; details: Raji (1.67 μM Labeling probe); TALL-104 effector 2.5:1; 6 hours at 37° C.
# Experimental: BiTEs are a class of artificial bispecific monoclonal antibodies that are investigated for the use as anti-cancer drugs as they are used to direct the T cells' cytotoxic activity to target cells (e.g., cancer cells). As shown, Raji target cells (1.67 μM Labeling probe) and TALL-104 effector cells were co-cultured at 2.5:1 ratio (12,500 effector to 5,000 target) in a 96-well assay plate. Bincyto was titrated at indicated concentrations and assay plate was incubated for 6 hours at 37° C. prior to Nano-Glo® Luciferase Assay Substrate addition. Curves were generated following assay background subtraction as described in above. […] S/B=BiTE/no BiTE. % antibody dependent target cell lysis=100×(RLU [target+ effector+antibody]−RLU [target+ effector])/(RLU [target+ effector+digitonin]−RLU [target+ effector]).
# Daudi cells = test: Antibody dependent cellular cytotoxicity (ADCC), labeled Daudi cells co-cultured with PBMC; type: cell-based; details: Daudi labeled with 1 μM Labeling Probe; PBMC E:T 20:1; 5 hours at 37° C.
# Experimental: As shown in FIGS. 3A-3C, experiments were conducted to test antibody dependent cellular cytotoxicity (ADCC) in Daudi (FIGS. 3A-3B) and SKBR3 (FIG. 3C) cells labeled with the bifunctional probes of the present disclosure. Daudi and SKBR3 cells were labeled with 1 μM and 10 μM Labeling Probe respectively and co-cultured with peripheral blood mononuclear cells (PBMC; Cellular Technologies Limited) at an E:T ratio of 20:1 (100,000 effector to 5,000 target) with indicated antibody titrations for 5 hours at 37° C. prior to Nano-Glo® Luciferase Assay Substrate addition. […] Curves in FIGS. 3B and 3C were generated following assay background subtraction (RLU [Target cells+Effector cells+Detection Components]−RLU [Media+Detection Components]) using a four parametric variable slope algorithm in Prism.
EC50 (Raji target cells),Substance,EC50 (Daudi cells)
5.38 µM,Bincyto: bispecific T-cell engager (BiTE) titrated on Raji target cells with TALL-104 effector cells,
,Rituximab: antibody titrated in ADCC assay on Daudi cells,6.8 ng/mL
